Patent US20100298434A1, “NEUROPROTECTION AND PREVENTION OF DOPAMINERGIC CELL DEATH BY TARGETING NUR77 TRANSLOCATION” (priority 2009, published 2010)

Assays:
substantia nigra neurons = test: 6-hydroxydopamine lesions in rats, Fluoro-Jade B staining of degenerating neurons; assay type: in vivo; conditions: intracerebral 6-OHDA
Protocol: (§1) Fifteen male Sprague—Dawley albino rats (Charles River, Montreal, Canada) weighing 250-275 g at the beginning of the experiment were used in this study. They were housed two per cage in a temperature-controlled environment maintained under a 12-h light/dark cycle with ad libitum access to food and water. Handling of the rats was performed in accordance with the Canadian Guide for the Care and Use of Laboratory animals and all procedures were approved by the Institutional Animal Care Committee of Laval University. All efforts were made to minimize the number of animals used and their suffering. Rats were anaesthetized in an induction chamber with 4% isoflurane in 95% O2/5% CO2 before being transferred to a stereotaxic frame and maintained at 1.5-3% isoflurane. A sagittal cut exposed bregma and a hole was drilled.
The brain sections were mounted on gelatin-coated slides (Brain Research Laboratories, Newton, Mass.) and air-dried overnight. They were dehydrated in ascending grades of ethanol, hydrated in descending grades of ethanol and finally rinsed in milliQ water. Afterwards, the sections were dipped in a 0.06% potassium permanganate solution bath for 10 min and washed in milliQ water. […] Degenerating neurons and fibers appeared green and nuclei emerged blue in fluorescence.

PC12 cells [1] = test: TUNEL/DAPI apoptosis in PC12 cells; assay type: cell-based, rat; conditions: 6-OHDA, at 12 and 24 h
Protocol: (§2) PC12 cells were obtained from ATCC CRL 1721 (VA, USA) and were grown in phenol red-free RPMI 1640 medium supplemented with 5% fetal calf serum (FCS), 10% horse serum and gentamicin (50 μg/ml). They were cultured on Primaria 6-well plates (BD Falcon, Ontario, Canada) for RT-PCR experiments and immunoblotting; on Primaria 96-wells plates for LDH cytoxicity experiments and finally on poly-L-lysine-coated circular glass coverslips for immunocytofluorescence assays. Cells were fed fresh medium every 3 days and maintained at 37° C. in a humidified 5% CO2 atmosphere. […] Control conditions were without toxin. […] For the present study, kinetic time periods were: 0 h, 3 h, 6 h, 9 h, 12 h and 24 h. After each experiment, culture medium was harvested for cytotoxicity detection and cells were collected for RT-PCR and ICF/Fractioning (Gelinas & Martinoli 2002; Gagne et al. 2003; Gelinas et al. 2004; Chiasson et al. 2006).
PC12 cells were grown and treated on circular glass coverslips, then fixed in 4% paraformaldehyde for 1 hour at 4° C. […] Images were acquired with an Olympus IX-70 inverted microscope with a high-pressure mercury burner and necessary filter cubes (Olympus U-MNUV, U-MNIBA and U-MWIG), and were analyzed with Bio-Rad's QuantityOne software. […]

Nur77 = Nur77 subcellular distribution (nuclei-cytoplasmic fractioning, Western blot) in PC12 cells; assay type: cell-based, rat; conditions: 6-OHDA 30 μM
Protocol: as §2
PC12 cells were grown and treated in 6-wells plates. We used a nuclear extraction kit (Active Motif, Carlsbad, Calif.) to separate cytoplasmic protein content from nuclear protein content. Briefly, cells were washed in wells with a mixture of PBS and phosphatase inhibitors, and then harvested in centrifuge tubes. Hypotonic buffer swelled cytoplasmic membrane, which an afterward mild detergent ruptured.
Centrifugation at 14,000×g pelleted the intact nuclei, and soluble material was preserved as the cytoplasmic fraction. Nuclei were the lysed with the provided lysis buffer. Protein dosage was performed with a bicinchoninic acid (BCA)-based SDS-compatible Protein Assay Kit (Pierce, Rockfort, Ill.) on each fraction of each sample.
Equal amounts of nuclei or cytoplasmic protein fractions were loaded onto a 10% polyacrylamide-SDS gel. After electrophoretic separation (180 volts, 45 min.) the polyacrylamide gels were transferred onto […] (PVDF) membranes (0.22 μm pore size, Bio-Rad) at 50 V for 2 h. The membranes were blocked with 5% non-fat powder milk for 1 h. […] Quantitative analysis was performed with the Fluor Chem SP software.

PC12 cells [2] = test: LDH cytotoxicity in PC12 cells; assay type: cell-based; conditions: PC12 cells
Protocol: They were cultured on Primaria 6-well plates (BD Falcon, Ontario, Canada) for RT-PCR experiments and immunoblotting; on Primaria 96-wells plates for LDH cytoxicity experiments and finally on poly-L-lysine-coated circular glass coverslips for immunocytofluorescence assays. Cells were fed fresh medium every 3 days and maintained at 37° C. in a humidified 5% CO2 atmosphere. […] Control conditions were without toxin.
Briefly, media were collected and centrifuged at 800×g at 4° C. for 2 min. The cell-free supernatant (100 μl) was then used to determine LDH activity by measuring the absorbance at a wavelength of 490 nm (A490) on a microplate reader (Multiscan Ascent Microplate reader, Thermolab System, Franklin Mass.) according to the working procedures of Roche's protocol. Total cellular LDH was determined by lysing cells with 1% Triton X-100.

Nur77 mRNA = test: 6-hydroxydopamine lesions in rats, Nur77 mRNA in situ hybridization in substantia nigra; assay type: in vivo; conditions: intracerebral 6-OHDA 12 μg/3 μl
Protocol: as §1
Cryostat-cut brain sections (12 μm) were mounted on Superfrost slides (Fisher Scientific, Toronto, ON, Canada) and stored at −80° C. Specific [^35S]UTP-labeled complementary.
RNA (cRNA) probes were used and preparation of the Nur77 probe was performed as described previously (Beaudry et al., 2000). The antisense cRNA probe for Nur77 stems from a 2.4-kb EcoRI fragment of a full-length rat Nur77 cDNA subcloned into pBluescript SK-1 and linearized with BamHI. […]

NCCc1cc(O)c(O)cc1O [6-OHDA, 6-hydroxydopamine]
time at which Fluoro-Jade staining is also observed (substantia nigra neurons): 3 h
time of maximal Fluoro-Jade staining (substantia nigra neurons): 48 h
cells showing signs of apoptosis (co-localization of DAPI and TUNEL) (PC12 cells [1]): more than 90%
start of Nur77 upregulation and translocation from the nucleus to the cytosol (Nur77): 9 h
start of significant rise of cellular death (LDH activity) (PC12 cells [2]; 10 μM 6-OHDA): 12 h
cell death (PC12 cells [2]; 6-OHDA 30 μM, after 24 h): ≤ 70%
earliest time of Nur77 mRNA induction in midbrain dopaminergic neurons (Nur77 mRNA): 3 h
